Experimental data published in US9522888B2, “Substituted bicyclic compounds” (BRISTOL-MYERS SQUIBB COMPANY, priority 2014, dated 2016).

Legend:
circulating lymphocytes [1] = experiment: Blood Lymphocyte Reduction (BLR) assay in rat; type: in vivo, Lewis rats; settings: oral; for Percent reduction vs. control at 24 hr post-dose: blood lymphocytes; for lymphocyte reduction: rodent BLR assay, 24 hours post-dose, versus vehicle treated group
Experimental: (§1) Blood Lymphocyte Reduction (BLR) Assay in Rodent:
(§2) Lewis rats or BALB/c mice were dosed orally with vehicle alone (polyethylene glycol 300, “PEG300”) or with test compounds. Compounds were dosed as a solution or suspension in the vehicle, adjusted to reflect the free amount of test article in the event that salt forms are utilized. Blood was drawn at 24 hr and blood lymphocyte counts were determined on an ADVIA 120 Hematology Analyzer (Siemens Healthcare Diagnostics). The results were measured as a reduction in the percentage of circulating lymphocytes as compared to the vehicle treated group at the time of measurement. The results represent the average results of all animals within each treatment group (n=2-4).

circulating lymphocytes [2] = experiment: Blood Lymphocyte Reduction (BLR) assay in mouse; type: in vivo, BALB/c mice; settings: oral; for lymphocyte reduction: mice, 24 hours post dose
Experimental: as §1, §2

[3] = tested on: adjuvant-induced arthritis, hind paw volume; experiment: Rat Adjuvant Induced Arthritis Assay (AA); type: in vivo, Male Lewis rats; settings: Lewis rat; for paw swelling (mL) on day 20, Mean: once daily oral prophylactic
Experimental: Rat Adjuvant Induced Arthritis Assay (AA) The rat adjuvant-induced arthritis model is an animal model for human rheumatoid arthritis. Male Lewis rats (150-175 g; Harlan, n=8 treatment group) were immunized at the base of the tail with 100 μl of 10 mg/ml freshly ground Mycobacterium butyricum (Difco Laboratories) in incomplete Freund's adjuvant (sigma). Animals were dosed once daily with the test article (as a solution or suspension in the vehicle) or vehicle alone (polyethylene glycol 300, “PEG300”) starting from the day of immunization. The volumes of their hind paws were measured in a water displacement plethysmometer (Ugo Basile, Italy). The baseline paw measurements were taken before onset of the disease (between day 7 to day 10). […] All procedures involving animals were reviewed and approved by the Institutional Animal Care Use Committee.

human S1P1 = human S1P1 (Homo sapiens (Human), UniProt P21453); experiment: S1P1 binding assay (33P-S1P radioligand competition, CHO cell membranes); settings: phosphate examples; read-out: S1P1 Binding
human S1P1, sequence (P21453 whole entry): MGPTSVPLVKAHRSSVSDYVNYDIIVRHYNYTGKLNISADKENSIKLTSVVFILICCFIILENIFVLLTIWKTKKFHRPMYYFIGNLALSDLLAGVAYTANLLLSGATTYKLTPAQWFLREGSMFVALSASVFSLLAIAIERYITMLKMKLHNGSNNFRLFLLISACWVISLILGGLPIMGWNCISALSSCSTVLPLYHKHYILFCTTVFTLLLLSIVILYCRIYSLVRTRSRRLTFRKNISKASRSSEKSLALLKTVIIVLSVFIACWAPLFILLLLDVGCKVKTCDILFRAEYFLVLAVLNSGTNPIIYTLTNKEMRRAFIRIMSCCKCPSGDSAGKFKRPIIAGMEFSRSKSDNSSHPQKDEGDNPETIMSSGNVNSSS
Outline: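 Radioligand is 33P-S1P, competing for membranes from human S1P1-expressing CHO cells. Membranes resuspended in 50 mM HEPES pH 7.5, 100 mM NaCl, 1 mM MgCl2, 2 mM EDTA.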

[4] = molecular target: S1P1 (membranes prepared from S1P1/CHO cells) (Homo sapiens (Human), UniProt P21453); experiment: Receptor [35S] GTPγS binding assay (S1P1 GTPγS); type: biochemical; settings: phosphate examples; read-out: S1P1 GTPγS
S1P1 (membranes prepared from S1P1/CHO cells), sequence (P21453 whole entry): as above
Outline: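 Agonist-stimulated [35S]GTPγS binding (0.2 nM final) to S1P1/CHO membranes, 3 μg protein/well, measured after 45 min at room temperature. Buffer contained 10 μM GDP, saponin and fatty-acid-free BSA at pH 7.5. Compounds tested as 11-point 3-fold series; bound label captured on filters, scintillation-counted, EC50 reported.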

[5] = molecular target: S1P3 (membranes prepared from EDG3-Gal5-bla HEK293T cells) (Homo sapiens (Human), UniProt Q99500); experiment: Receptor [35S] GTPγS binding assay (S1P3 GTPγS); type: biochemical; settings: phosphate examples; read-out: S1P3 GTPγS
S1P3 (membranes prepared from EDG3-Gal5-bla HEK293T cells), sequence (Q99500 whole entry): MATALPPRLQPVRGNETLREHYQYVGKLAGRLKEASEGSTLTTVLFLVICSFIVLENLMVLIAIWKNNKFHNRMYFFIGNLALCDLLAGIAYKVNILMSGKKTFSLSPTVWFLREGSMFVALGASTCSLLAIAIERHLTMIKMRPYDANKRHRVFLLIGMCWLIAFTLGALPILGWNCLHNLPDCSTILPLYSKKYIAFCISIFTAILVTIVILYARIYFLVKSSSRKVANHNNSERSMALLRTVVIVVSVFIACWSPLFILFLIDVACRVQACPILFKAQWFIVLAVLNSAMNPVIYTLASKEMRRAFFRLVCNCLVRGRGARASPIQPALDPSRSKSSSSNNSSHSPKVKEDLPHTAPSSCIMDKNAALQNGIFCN
Outline: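 Membranes (3 μg protein/well) from S1P1/CHO cells or EDG3-Gal5-bla HEK293T cells (S1P3) were incubated 45 min at room temperature with 0.2 nM final [35S]GTPγS in HEPES pH 7.5 buffer with 10 μM GDP, MgCl2 and saponin. Bound label counted after filtration; EC50 from 11-point, 3-fold dilutions.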

hS1P1/CHO cells = hS1P1/CHO cells (Homo sapiens (Human), UniProt P21453); experiment: hS1P1 ERK phosphorylation (S1P1 pERK); type: cell-based; settings: phosphate examples
hS1P1/CHO cells, sequence (P21453 whole entry): as the sequence (P21453 whole entry) above
Outline: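 Agonism read as ERK phosphorylation (SureFire pERK) in hS1P1/CHO lysates, normalised to the maximal effect of 10 μM S1P. Cells were held 2 h in serum-free medium, then treated with compound for 7 min at 37° C. in HBSS/20 mM HEPES.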

Compound	IC50 (human S1P1) [nM]	EC50 [4] [nM]	EC50 [5] [nM]	EC50 (hS1P1/CHO cells) [nM]	Percent reduction vs. control at 24 hr post-dose (circulating lymphocytes [1]; 0.1 mg/kg) [%]	also measured
COCCCCCC1CCc2cc([C@@H]3CC[C@](N)(CO)C3)ccc2C1 (single isomer, unassigned) [Example 675]	–	–	–	–	63	lymphocyte reduction (circulating lymphocytes [1]; 0.1 mg/kg): 63%
COc1cccc(CC[C@H]2CCc3cc([C@H]4CC[C@](N)(CO)C4)ccc3C2)c1 [Example 676, ((1R,3S)-1-amino-3-((S)-6-(3-methoxyphenethyl)-5,6,7,8-tetrahydronaphthalen-2-yl)cyclopentyl) methanol]	–	–	–	–	63	–
CCCCCOc1ccc2cc([C@@H]3CC[C@](N)(CO)C3)ccc2c1 [Comparative Compound 703, reference compound]	–	–	–	–	–	lymphocyte reduction (circulating lymphocytes [2]; 1.0 mg/kg): 52%; Mouse Blood Lymphocyte Reduction Assay at 24 hr post-dose Percent reduction vs. control (circulating lymphocytes [2]; 1.0 mg/kg): 52%
COc1cccc(OC[C@H]2CCc3cc([C@H]4CC[C@](N)(CO)C4)ccc3C2)c1 [Example 685, ((1R,3S)-1-amino-3-((S)-6-((3-methoxyphenoxy)methyl)-5,6,7,8-tetrahydronaphthalen-2-yl)cyclopentyl)methanol]	–	–	–	–	55	–
COc1cccc(OC[C@@H]2CCc3cc([C@H]4CC[C@](N)(CO)C4)ccc3C2)c1 [Example 684, ((1R,3S)-1-amino-3-((R)-6-((3-methoxyphenoxy)methyl)-5,6,7,8-tetrahydronaphthalen-2-yl)cyclopentyl)methanol]	–	–	–	–	–	Percent reduction vs. control at 24 hr post-dose (circulating lymphocytes [1]; 0.05 mg/kg): 72%; lymphocyte reduction (circulating lymphocytes [2]; 0.5 mg/kg): 79%; Mouse Blood Lymphocyte Reduction Assay at 24 hr post-dose Percent reduction vs. control (circulating lymphocytes [2]; 0.5 mg/kg): 79%
COc1cccc(CC[C@@H]2CCc3cc([C@H]4CC[C@](N)(CO)C4)ccc3C2)c1 [Example 677, ((1R,3S)-1-amino-3-((R)-6-(3-methoxyphenethyl)-5,6,7,8-tetrahydronaphthalen-2-yl)cyclopentyl)methanol]	–	–	–	–	–	Percent reduction vs. control at 24 hr post-dose (circulating lymphocytes [1]; 0.05 mg/kg): 49%
COc1ccccc1CC[C@H]1CCc2cc([C@H]3CC[C@](N)(CO)C3)ccc2C1 [Example 682, ((1R,3S)-1-amino-3-((R)-6-(2-methoxyphenethyl)-5,6,7,8-tetrahydronaphthalen-2-yl)cyclopentyl)methanol]	–	–	–	–	17	Percent reduction vs. control at 24 hr post-dose (circulating lymphocytes [1]; 2.0 mg/kg): 83%; lymphocyte reduction (circulating lymphocytes [1]; 0.1 mg/kg): 17%
CCOCCC[C@H]1CCc2cc([C@H]3CC[C@](N)(CO)C3)ccc2C1 [Example 678, ((1R,3S)-1-amino-3-((R)-6-(3-ethoxypropyl)-5,6,7,8-tetrahydronaphthalen-2-yl)cyclopentyl)methanol]	–	–	–	–	16	Percent reduction vs. control at 24 hr post-dose (circulating lymphocytes [1]; 0.3 mg/kg): 53%; lymphocyte reduction (circulating lymphocytes [1]; 0.1 mg/kg): 16%
COCCCCC[C@@H]1CCc2cc([C@H]3CC[C@](N)(CO)C3)ccc2C1 [Example 673, ((1R,3S)-1-amino-3-((R)-6-(5-methoxypentyl)-5,6,7,8-tetrahydronaphthalen-2-yl)cyclopentyl)methanol]	–	–	–	–	62	–
COCCCCC[C@H]1CCc2cc([C@H]3CC[C@](N)(CO)C3)ccc2C1 [Example 672, ((1R,3S)-1-amino-3-((S)-6-(5-methoxypentyl)-5,6,7,8-tetrahydronaphthalen-2-yl)cyclopentyl)methanol]	–	–	–	–	47	paw swelling (mL) on day 20, Mean ([3]; 0.1 mg/kg): 2.60 mL; paw swelling (mL) on day 20, Mean ([3]; 0.3 mg/kg): 1.46 mL; paw swelling (mL) on day 20, Mean ([3]; 1.0 mg/kg): 0.17 mL; inhibition of disease progression as measured by reduced paw swelling ([3]; prophylactic oral dosing regimen, result in words): showed inhibition of disease progression
COCCCCCC1CCc2cc([C@@H]3CC[C@](N)(CO)C3)ccc2C1 (single isomer, unassigned) [Example 674]	–	–	–	–	30	Percent reduction vs. control at 24 hr post-dose (circulating lymphocytes [1]; 0.3 mg/kg): 73%; lymphocyte reduction (circulating lymphocytes [1]; 0.1 mg/kg): 30%

Further lines, with some results ahead:

IC50 (human S1P1) [nM]	EC50 [4] [nM]	EC50 [5] [nM]	EC50 (hS1P1/CHO cells) [nM]	Compound	Percent reduction vs. control at 24 hr post-dose (circulating lymphocytes [1]; 0.1 mg/kg) [%]	also measured
100 to 1000	100 to 1000	> 625	100 to 1000	COc1ccccc1CCC[C@@H]1CCc2cc([C@H]3CC[C@](N)(COP(=O)(O)O)C3)ccc2C1 [compound 563]	–	–
< 10	100 to 1000	> 625	< 10	COCC[C@@H]1CCc2cc([C@H]3CC[C@](N)(COP(=O)(O)O)C3)ccc2C1 [compound 540]	–	–
< 10	10 to 100	> 625	< 10	CC(C)CCSC[C@H]1CCc2cc([C@H]3CC[C@](N)(COP(=O)(O)O)C3)ccc2C1 [compound 511]	–	–
10 to 100	100 to 1000	> 625	10 to 100	CC/C=C/CC[C@@H]1CCc2cc([C@H]3CC[C@](N)(COP(=O)(O)O)C3)ccc2C1 [compound 650]	–	–
100 to 1000	100 to 1000	> 625	10 to 100	C=CCOCCO[C@@H]1CCc2cc(C3CCC(N)(COP(=O)(O)O)C3)ccc2C1 (single isomer, unassigned) [compound 579]	–	–
< 10	10 to 100	> 625	< 10	CC(C)SCC[C@H]1CCc2cc([C@H]3CC[C@](N)(COP(=O)(O)O)C3)ccc2C1 [compound 536]	–	–
< 10	10 to 100	> 625	< 10	CC(C)CCOC[C@@H]1CCc2cc([C@H]3CC[C@](N)(COP(=O)(O)O)C3)ccc2C1 [compound 457]	–	–
100 to 1000	100 to 1000	> 625	< 10	N[C@]1(COP(=O)(O)O)CC[C@H](c2ccc3c(c2)CC[C@@H](COCc2cccs2)C3)C1 [compound 472]	–	–
< 10	< 10	> 625	< 10	CCCCCC[C@H]1COc2cc([C@@H]3CC[C@](N)(COP(=O)(O)O)C3)ccc2C1 [compound 425]	–	–
< 10	< 10	> 625	< 10	CCCCC[C@@H]1CCc2cc([C@@H]3CC[C@@](N)(COP(=O)(O)O)C3)ccc2C1 [compound 577]	–	–
< 10	< 10	> 625	< 10	Cn1nc(OC[C@@H]2CCc3cc([C@H]4CC[C@](N)(COP(=O)(O)O)C4)ccc3C2)cc1C(F)(F)F [compound 496]	–	–
